Assay results published in patent US10849881B2, “Octahydro-cyclobuta[1,2-c;3,4-c′]dipyrrol-2-yl” (Hoffmann-La Roche Inc., priority 2013, dated 2020).

What follows are molecules tested against ATX (human His-tagged) (Homo sapiens (Human), UniProt Q13822) (assay: Human ATX enzyme inhibition assay (fluorescence quenching, MR121 substrate)). Conditions: 30 nM ATX, 1 μM MR121 substrate, 30° C., pH 8.0.
Assay type: biochemical
Experimental: Human ATX Enzyme Inhibition Assay
ATX inhibition was measured by a fluorescence quenching assay using a specifically labeled substrate analogue (MR121 substrate). To obtain this MR121 substrate, BOC and TBS protected 6-amino-hexanoic acid (R)-3-({2-[3-(2-{2-[2-(2-amino-ethoxy)-ethoxy]-ethoxy}-ethoxy)-propionylamino]-ethoxy}-hydroxy-phosphoryloxy)-2-hydroxy-propyl ester (Ferguson et al., Org Lett 2006, 8 (10), 2023) was labeled with MR121 fluorophore (CAS 185308-24-1, 1-(3-carboxypropyl)-11-ethyl-1,2,3,4,8,9,10,11-octahydro-dipyrido[3,2-b:2′,3′-i]phenoxazin-13-ium) on the free amine of the ethanolamine side and then, after deprotection, subsequently with tryptophan on the side of the aminohexanoic acid.
Assay working solutions were made as follows:
Assay buffer (50 mM Tris-HCl, 140 mM NaCl, 5 mM KCl, 1 mM CaCl2, 1 mM MgCl2, 0.01% Triton-X-100, pH 8.0;
ATX solution: ATX (human His-tagged) stock solution (1.08 mg/mL in 20 mM bicine, pH 8.5, 0.15 M NaCl, 10% glycerol, 0.3% CHAPS, 0.02% NaN3), diluted to 1.4-2.5× final concentration in assay buffer;
MR121 substrate solution: MR121 substrate stock solution (800 μM MR121 substrate in DMSO), diluted to 2-5× final concentration in assay buffer.
Test compounds (10 mM stock in DMSO, 8 μL) were obtained in 384 well sample plates (Corning Costar #3655) and diluted with 8 μL DMSO. Row-wise serial dilutions were made by transferring 8 μL cpd solution to the next row up to row O. The compound and control solutions were mixed five times and 2 μL were transferred to 384 well assay plates (Corning Costar #3702). Then, 15 μL of 41.7 nM ATX solution was added (30 nM final concentration), mixed five times and then incubated for 15 minutes at 30° C. 10 μL of MR121 substrate solution was added (1 μM final concentration), mixed 30 times and then incubated for 15 minutes at 30′C.
`O=C(c1ccc2cc(Cl)ccc2c1)N1C[C@@H]2[C@H](C1)[C@H]1CN(C(=O)c3ccc4[nH]nnc4c3)C[C@@H]21` [Example 1, [(3aS,3bS,6aR,6bR)-5-(1H-Benzotriazole-5-carbonyl)-octahydro-cyclobuta[1,2-c;3,4-c′]dipyrrol-2-yl]-(6-chloro-naphthalen-2-yl)-methanone] showed an IC50 of 34 nM.
Work on `O=C(CCc1ccc(OC(F)(F)F)cc1)N1C[C@@H]2[C@H](C1)[C@H]1CN(C(=O)c3ccc4[nH]nnc4c3)C[C@@H]21` [Example 1.001, 1-[(3aS,3bR,6aS,6bR)-5-(1H-benzotriazole-5-carbonyl)-octahydro-cyclobuta[1,2-c;3,4-c′]dipyrrol-2-yl]-3-(4-trifluoromethoxy-phenyl)-propan-1-one] yielded an IC50 of 11 nM.
Molecule `O=C(c1ccc(-c2ccc(F)cc2)cc1)N1C[C@@H]2[C@H](C1)[C@H]1CN(C(=O)c3ccc4[nH]nnc4c3)C[C@@H]21` [Example 1.002, [(3aS,3bS,6aR,6bR)-5-(1H-benzotriazole-5-carbonyl)-octahydro-cyclobuta[1,2-c;3,4-c′]dipyrrol-2-yl]-(4′-fluoro-biphenyl-4-yl)-methanone] has an IC50 of 64 nM.
In the case of `O=C(/C=C/c1ccc(OC(F)(F)F)cc1)N1C[C@@H]2[C@H](C1)[C@H]1CN(C(=O)c3ccc4[nH]nnc4c3)C[C@@H]21` [Example 1.003, (E)-1-[(3aS,3bR,6aS,6bR)-5-(1H-benzotriazole-5-carbonyl)-octahydro-cyclobuta[1,2-c;3,4-c′]dipyrrol-2-yl]-3-(4-trifluoromethoxy-phenyl)-propenone], the IC50 is reported as 8.5 nM.
`COc1ccc2cc(C(=O)N3C[C@@H]4[C@H](C3)[C@H]3CN(C(=O)c5ccc6[nH]nnc6c5)C[C@@H]43)ccc2c1` [Example 1.005, [(3aS,3bS,6aR,6bR)-5-(1H-benzotriazole-5-carbonyl)-octahydro-cyclobuta[1,2-c;3,4-c′]dipyrrol-2-yl]-(6-methoxy-naphthalen-2-yl)-methanone] was tested, and the IC50 was 120 nM.
Work on `O=C(/C=C/c1ccc(OC(F)(F)F)cc1)N1C[C@@H]2[C@H](C1)[C@H]1CN(C(=O)[C@@H]3CCc4[nH]nnc4C3)C[C@@H]21` [Example 1.006, (E)-1-[(3aS,3bS,6aR,6bR)-5-((R)-4,5,6,7-tetrahydro-1H-benzotriazole-5-carbonyl)-octahydro-cyclobuta[1,2-c;3,4-c′]dipyrrol-2-yl]-3-(4-trifluoromethoxy-phenyl)-propenone] yielded an IC50 of 8 nM.
For `N#Cc1ccc2cc(C(=O)N3C[C@@H]4[C@H](C3)[C@H]3CN(C(=O)c5ccc6[nH]nnc6c5)C[C@@H]43)ccc2c1` [Example 1.007, 6-[(3aS,3bS,6aR,6bR)-5-(1H-benzotriazole-5-carbonyl)-octahydro-cyclobuta[1,2-c;3,4-c′]dipyrrole-2-carbonyl]-naphthalene-2-carbonitrile], the IC50 was 62 nM.
Molecule `O=C(COc1ccc(OC(F)(F)F)cc1)N1C[C@@H]2[C@H](C1)[C@H]1CN(C(=O)c3ccc4[nH]nnc4c3)C[C@@H]21` [Example 1.008, 1-[(3aR,3bS,6aR,6bS)-5-(1H-benzotriazole-5-carbonyl)-octahydro-cyclobuta[1,2-c;3,4-c′]dipyrrol-2-yl]-2-(4-trifluoromethoxy-phenoxy)-ethanone] has an IC50 of 36 nM.
`CC(C)c1ccccc1OCC(=O)N1C[C@@H]2[C@H](C1)[C@H]1CN(C(=O)c3ccc4[nH]nnc4c3)C[C@@H]21` [Example 1.009, 1-[(3aR,3bS,6aR,6bS)-5-(1H-benzotriazole-5-carbonyl)-octahydro-cyclobuta[1,2-c;3,4-c′]dipyrrol-2-yl]-2-(2-isopropyl-phenoxy)-ethanone] showed an IC50 of 8 nM.
For `O=C(c1ccc2[nH]nnc2c1)N1C[C@@H]2[C@H](C1)[C@H]1CN(C(=O)c3cc4cc(OC(F)(F)F)ccc4[nH]3)C[C@@H]21` [Example 1.010, [(3aR,3bS,6aR,6bS)-5-(1H-benzotriazole-5-carbonyl)-octahydro-cyclobuta[1,2-c;3,4-c′]dipyrrol-2-yl]-(5-trifluoromethoxy-1H-indol-2-yl)-methanone], the IC50 was 16 nM.
